Key:
Helicobacter pylori = test: Minimal Inhibitory Concentrations against Helicobacter pylori on agar plates; type: cell-based
Protocol: Activity of bismuth compounds against Helicobarter pylori
Various bismuth compounds were tested in different concentrations against Helicobacter pylori on agar plates. Minimal Inhibitory Concentrations (MIC--values) are given in mg substance per litre.

[1] = stability against hydrolysis; type: physicochemical; conditions: dissolved in aqueous (25%) tetrahydrofuran, under reflux
From the text: When the R1-5 -groups form Bi--C bonds, aryl grou7ps are generally preferred. At least one of the R1-5 -groups should be an aryl group or substituted aryl group. The term "aryl group" here means any aromatic hydrocarbon ring system or aromatic heterocyclic system. Typical ring systems include for example benzene, naphthalene, indene, fluorene, phenalene, phenanthrene, anthracene, fluoranthene, acephenanthrylene, aceanthrylene, triphenylene, pyrene, chrysene, naphthacene, pleiadene, picene, perylene, pentaphene, pentacene, tetraphenylene, hexaphene, hexacene, rubicene, coronene, trinaphthylene, heptaphene, rubicene, coronene, heptacene, pyranthrene, ovalene, furan, thiophene, thianthrene, pyran, isobenzofuran, chromene, xanthene, phenoxathin, pyrrole, imidazole, pyrazole, isothiazole, isoxazole, pyridine, pyrazine, pyrimidine, pyradizine, indolizine, isoindole, indole, indazole, purine, quinolizine, isocaunoline, quinoline, phtalazine, naphyhyridine, quinoxaline, quinazoline, cinnoline, pteridine, carbazole, β-carboline, phenanthridine, acridine, permidine, phenanthroline, phenazine, phenarsazine, phenothiazine, furazan, phenoxazine, isochroman, chroman, indoline and iso-indoline.

Compound | Minimal Inhibitory Concentration (MIC - value) (Helicobacter pylori) | stability against hydrolysis [1]
O=[N+]([O-])[O-].O=[N+]([O-])[O-].O=[N+]([O-])[O-].O=[N+]([O-])[O-].[Bi+3].[Bi+3].[Bi+3].[Bi+3].[Bi+3].[O-2].[OH-].[OH-].[OH-].[OH-].[OH-].[OH-].[OH-].[OH-].[OH-] [Bismuth subnitrate, bismuth hydroxide nitrate oxide] | 32 mg substance per litre | 
c1cc[c]([Bi]([c]2ccccc2)[c]2ccccc2)cc1 [triphenylbismuth] |  | stable under reflux for many days
Triphenylbismuthine difluoride [Example 16] | 8 mg substance per litre | 
Tris(2,4,6trimethylphenyl)bismuthine dichloride [Example 15] | ≤ 0.25 mg substance per litre | 

Reference: US6303101A, “Bismuth compounds” (Nycomed Imaging AS, priority 1995, dated 2001)
